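Protocol summary: plate cells (96-well), add compound at 5 concentrations, incubate 48 h, interpolate endpoints linearly. Abbreviation: GI50, concentration required for 50% inhibition of growth.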 The source made the active and inactive calls. Cut-off read from the data, not from the text of the source: active = GI50 up to about 1.1 µM and inactive = higher.

Among the test systems are NCI-H460; 786-0; MOLT-4; OVCAR-8; UACC-62; OVCAR-3; CAKI-1; NCI/ADR-RES; Malme-3M; UACC-257; SK-MEL-5; T47D; ACHN; NCI-H226; Hs-578T; SR; OVCAR-5; MCF7; NCI-H522; HCT-116.
Assay in all cases: NCI-60 cell line screen, 48 h

`C=C1C(O)C2OC(=O)C(=C)C2C(OC(=O)/C(C)=C/C)CC2(C)OC2C2OC12` (stereo not given): the GI50 in the assay on NCI-H460 was 3.78 µM (inactive); in the assay with 786-0 it was 6.31 µM (inactive); in the assay with MOLT-4, 0.634 µM (active); in the assay with OVCAR-8, 6.11 µM (inactive); in the assay with UACC-62 it was 15.3 µM (inactive); in the assay on OVCAR-3, 6.28 µM (inactive). Further, the GI50 is 10.2 µM (inactive) with CAKI-1; 7.93 µM (inactive) in the assay on NCI/ADR-RES; 10.3 µM (inactive) in the assay with Malme-3M; 15.7 µM (inactive) with UACC-257; 6.22 µM (inactive) with SK-MEL-5; 14.3 µM (inactive) with T47D. Moreover, the GI50 with ACHN is 3.69 µM (inactive); in the assay with NCI-H226 it was > 100 µM (inactive); with Hs-578T, 20.7 µM (inactive); with SR, 1.93 µM (inactive); with OVCAR-5 it was 5.89 µM (inactive); in the assay on MCF7, 4.44 µM (inactive). The GI50 is 3.15 µM (inactive) in the assay with NCI-H522 and 5.22 µM (inactive) with HCT-116.
Consider `COc1ccc(-n2c(Cn3nnc(-c4cccnc4)n3)nn(C3OC(COC(=O)c4ccccc4)C(OC(=O)c4ccccc4)C3OC(=O)c3ccccc3)c2=S)cc1` (stereo not given), for which the GI50 in the assay on NCI-H460, in the assay with 786-0, in the assay on MOLT-4, in the assay on OVCAR-8, in the assay on UACC-62 and in the assay on OVCAR-3 was > 100 µM (inactive) in each case. Also, the GI50 in the assay with CAKI-1, in the assay on NCI/ADR-RES, with Malme-3M, in the assay with UACC-257, in the assay with SK-MEL-5 and in the assay with T47D was > 100 µM (inactive) throughout. Also, the GI50 in the assay on ACHN is > 100 µM (inactive); in the assay with NCI-H226, 14.2 µM (inactive); in the assay with Hs-578T, > 100 µM (inactive); in the assay on SR, > 100 µM (inactive); in the assay on OVCAR-5, > 100 µM (inactive); in the assay with MCF7, > 100 µM (inactive). For the same compound, the GI50 in the assay on NCI-H522 and in the assay on HCT-116 was > 100 µM (inactive) in each case.
`CCOC(=O)Nc1ccc2c(c1)N(C(=O)CCN(CC)CC)c1ccccc1S2` [ETHACIZINE]: the GI50 is 20.1 µM (inactive) in the assay with NCI-H460; 24.4 µM (inactive) with 786-0; 22.9 µM (inactive) in the assay on MOLT-4; 25 µM (inactive) with OVCAR-8; 21.5 µM (inactive) in the assay on UACC-62; 30 µM (inactive) in the assay on OVCAR-3. The GI50 in the assay on CAKI-1 is 36.4 µM (inactive); in the assay on NCI/ADR-RES, 45.2 µM (inactive); with Malme-3M, 18.7 µM (inactive); in the assay with UACC-257 it was 16.3 µM (inactive); in the assay with SK-MEL-5, 19.2 µM (inactive); with T47D, 27.4 µM (inactive). Further, the GI50 in the assay with ACHN is 29.8 µM (inactive); with NCI-H226, 51.2 µM (inactive); in the assay on Hs-578T, 50.4 µM (inactive); with SR it was 17.5 µM (inactive); with OVCAR-5 it was 57.1 µM (inactive); in the assay on MCF7, 25.3 µM (inactive). Besides, the GI50 with NCI-H522 is 65.8 µM (inactive); in the assay with HCT-116, 17.6 µM (inactive).
`CC1(C)C2CCC1C(=O)C(C=O)C2` (stereo not given): the GI50 in the assay with NCI-H460, with 786-0, in the assay on MOLT-4, in the assay on OVCAR-8, with UACC-62 and with OVCAR-3 was > 100 µM (inactive) in each case. Also, the GI50 in the assay on CAKI-1, in the assay with NCI/ADR-RES, with Malme-3M, with UACC-257, in the assay on SK-MEL-5 and with T47D was > 100 µM (inactive) in each case. The GI50 was > 100 µM (inactive) with ACHN; > 100 µM (inactive) with NCI-H226; > 100 µM (inactive) with Hs-578T; 3.16 µM (inactive) in the assay with SR; > 100 µM (inactive) in the assay on OVCAR-5; > 100 µM (inactive) with MCF7. The GI50 with NCI-H522 and in the assay with HCT-116 was > 100 µM (inactive) throughout.
For the compound `COc1cc2nc3n(c2cc1OC)C(O)c1c(Cl)nc(SC)nc1S3` (stereo not given), the GI50 is 3.44 µM (inactive) in the assay with NCI-H460; 2.35 µM (inactive) in the assay on 786-0; 1.98 µM (inactive) in the assay with MOLT-4; 2.59 µM (inactive) in the assay on OVCAR-8; 2.19 µM (inactive) with UACC-62; 3.12 µM (inactive) with OVCAR-3. For the same compound, the GI50 is 7.24 µM (inactive) in the assay on CAKI-1; 3.36 µM (inactive) in the assay on NCI/ADR-RES; 1.2 µM (inactive) with Malme-3M; 13.1 µM (inactive) in the assay with UACC-257; 1.92 µM (inactive) in the assay with SK-MEL-5; 3.8 µM (inactive) with T47D. Further, the GI50 in the assay with ACHN is 3.3 µM (inactive); in the assay with NCI-H226 it was 3.35 µM (inactive); in the assay on Hs-578T it was 2.77 µM (inactive); with SR, 3.68 µM (inactive); in the assay with OVCAR-5, 16.6 µM (inactive); in the assay with MCF7 it was 3.36 µM (inactive). Further, the GI50 was 1.72 µM (inactive) with NCI-H522 and 2.46 µM (inactive) with HCT-116.
`S=C(/N=C1/NCC(CN2CCN(c3ccccc3)CC2)O1)Nc1ccccc1` (stereo not given): the GI50 in the assay with NCI-H460 is 23.3 µM (inactive); in the assay on 786-0, 76.7 µM (inactive); with MOLT-4 it was 27.5 µM (inactive); in the assay with OVCAR-8, > 100 µM (inactive); in the assay with UACC-62, 39.7 µM (inactive); with OVCAR-3, 52.2 µM (inactive). The GI50 in the assay on CAKI-1 was 73.3 µM (inactive); in the assay with NCI/ADR-RES, > 100 µM (inactive); in the assay on Malme-3M it was > 100 µM (inactive); in the assay on UACC-257 it was > 100 µM (inactive); in the assay on SK-MEL-5, 35.3 µM (inactive); with T47D, 29.7 µM (inactive). The GI50 was > 100 µM (inactive) with ACHN; > 100 µM (inactive) in the assay with NCI-H226; > 100 µM (inactive) in the assay on Hs-578T; 34.6 µM (inactive) with SR; > 100 µM (inactive) with OVCAR-5; 38.4 µM (inactive) with MCF7. Also, the figures for the GI50 with NCI-H522 and in the assay on HCT-116 were > 100 µM (inactive) and 48.3 µM (inactive), respectively.
Regarding `CCOc1cc(C2SCC(=O)N2c2ccc(Oc3ccc(Cl)cc3)c(Cl)c2)ccc1O` (stereo not given), the GI50 with NCI-H460 is 19.2 µM (inactive); with 786-0, 25 µM (inactive); with MOLT-4 it was 18.1 µM (inactive); with OVCAR-8, 17.7 µM (inactive); in the assay with UACC-62, 16.4 µM (inactive); with OVCAR-3 it was 14 µM (inactive). Also, the GI50 with CAKI-1 is 17.3 µM (inactive); in the assay with NCI/ADR-RES it was 17.7 µM (inactive); with Malme-3M, 17.1 µM (inactive); in the assay with UACC-257, 17.5 µM (inactive); in the assay on SK-MEL-5, 16.1 µM (inactive); in the assay on T47D, 14.2 µM (inactive). Further, the GI50 in the assay with ACHN was 17.4 µM (inactive); with NCI-H226 it was 15.6 µM (inactive); in the assay on Hs-578T, 17.3 µM (inactive); with SR, 2.04 µM (inactive); with OVCAR-5, 20.2 µM (inactive); in the assay on MCF7, 25.1 µM (inactive). For the same compound, the GI50 in the assay with NCI-H522 was 13.2 µM (inactive); in the assay on HCT-116, 12.2 µM (inactive).
Turning to `CCC/N=C/c1cc(Cc2ccc(O)c(/C=N/CCC)c2)ccc1O`, the GI50 is 18.4 µM (inactive) in the assay with NCI-H460; 12.8 µM (inactive) in the assay with 786-0; 1.54 µM (inactive) in the assay with MOLT-4; 3.1 µM (inactive) in the assay on OVCAR-8; 5.53 µM (inactive) in the assay on UACC-62; 2.91 µM (inactive) with OVCAR-3. The GI50 in the assay on CAKI-1 was 21.1 µM (inactive); in the assay on NCI/ADR-RES it was 17.2 µM (inactive); in the assay on Malme-3M it was 19.5 µM (inactive); with UACC-257 it was 19.1 µM (inactive); in the assay with SK-MEL-5, 5.51 µM (inactive); in the assay with T47D, 1.45 µM (inactive). In addition, the GI50 in the assay with ACHN is 20.7 µM (inactive); with NCI-H226 it was 8.43 µM (inactive); with Hs-578T it was 16 µM (inactive); in the assay with SR, 1.95 µM (inactive); in the assay with OVCAR-5 it was 18.4 µM (inactive); in the assay on MCF7, 2.36 µM (inactive). Moreover, the GI50 with NCI-H522 is 20.6 µM (inactive); in the assay on HCT-116, 2.37 µM (inactive).
Regarding `Fc1cccc(Cl)c1/C=N\N=C1c2ccccc2-c2ccccc21`, the GI50 in the assay with NCI-H460 is 79.8 µM (inactive); in the assay with 786-0, > 100 µM (inactive); in the assay on MOLT-4 it was 66.4 µM (inactive); with OVCAR-8, 79.8 µM (inactive); in the assay on UACC-62, > 100 µM (inactive); in the assay with OVCAR-3 it was 69.2 µM (inactive). The GI50 is > 100 µM (inactive) in the assay with CAKI-1; > 100 µM (inactive) in the assay with NCI/ADR-RES; 76.7 µM (inactive) in the assay on Malme-3M; > 100 µM (inactive) in the assay on UACC-257; > 100 µM (inactive) with SK-MEL-5; 30 µM (inactive) with T47D. Besides, the GI50 is 95.3 µM (inactive) in the assay on ACHN; > 100 µM (inactive) in the assay with NCI-H226; 34.3 µM (inactive) in the assay on Hs-578T; 51.2 µM (inactive) with SR; > 100 µM (inactive) in the assay with OVCAR-5; 11.8 µM (inactive) in the assay on MCF7. Moreover, the GI50 in the assay on NCI-H522 and in the assay on HCT-116 was > 100 µM (inactive) in each case.
With `CC(C)CSCC1OC(n2cnc3c(N)nccc32)C(O)C1O` (stereo not given), the GI50 in the assay with NCI-H460 is > 100 µM (inactive); in the assay with 786-0, > 100 µM (inactive); with MOLT-4, > 87.5 µM (inactive); with OVCAR-8 it was > 100 µM (inactive); with UACC-62 it was > 100 µM (inactive); in the assay with OVCAR-3 it was > 100 µM (inactive). For the same compound, the GI50 is > 100 µM (inactive) in the assay on CAKI-1; > 100 µM (inactive) with NCI/ADR-RES; > 100 µM (inactive) in the assay with Malme-3M; > 85.3 µM (inactive) with UACC-257; 43.8 µM (inactive) in the assay on SK-MEL-5; > 100 µM (inactive) with T47D. Moreover, the GI50 is > 100 µM (inactive) in the assay with ACHN; > 57.1 µM (inactive) in the assay on NCI-H226; > 72.1 µM (inactive) with Hs-578T; > 100 µM (inactive) with SR; > 100 µM (inactive) in the assay on OVCAR-5; > 100 µM (inactive) with MCF7. Also, the GI50 in the assay on NCI-H522 is 45.8 µM (inactive); with HCT-116, > 100 µM (inactive).

Values taken from ChEMBL document CHEMBL1201862, “PubChem BioAssay data set” (2004).
